From PubChem BioAssay AID1996
In brackets after ≈: the same amount, converted by molar mass.

details: buffer; pH 7.4; 200.0 µM

SMILES	solubility kinetic [µg/mL]
O=C(CN1C(=O)NC2(CCCCC2)C1=O)N1CCc2ccccc2C1	> 51.2
Cc1ccc(S(=O)(=O)Nc2ccc(Nc3ccccc3)cc2)cc1	2.5 (≈ 7.39 µM)
O=C1NCCN/C1=C\C(=O)c1cccc(Br)c1	> 44.3
CCCN1CCC(NC(=O)C2CCCCC2C(=O)O)CC1 (stereo unspecified)	> 44.5
CCOc1cc(C(F)(F)F)cnc1/C(N)=N/O	36.9 (≈ 148 µM)
CCC(=O)Nc1c(-c2ccccc2)c(=O)c2ccccc2n1C	44.9 (≈ 147 µM)
CCNC(=O)c1ccccc1SCC(=O)Nc1ccc(F)cc1	> 49.9
CCCc1cc(=O)[nH]c(SCC(=O)NC2CCCCCCC2)n1	14.5 (≈ 43 µM)
O=C(NCc1ccco1)c1ccc2c(c1)N(Cc1ccccc1)CCS2	12.9 (≈ 35.4 µM)
Cc1ccc(NC(=O)CC(=O)Nc2ccc(C)c(C)c2)cc1C	< 0.3
CCCCn1c(=S)[nH]c2ccc(N3CCOCC3)cc2c1=O	4.3 (≈ 13.5 µM)
O=C(NN1CCOCC1)c1ccc(Cl)c([N+](=O)[O-])c1	> 42.9
Cc1ccc(C(=O)CCC(=O)NCc2ccccc2)cc1	16.9 (≈ 60.1 µM)
CCOC(=O)Cc1csc(NC(=O)CN2CCN(c3ccccc3)CC2)n1	44.6 (≈ 115 µM)
O=C(CNc1ccccc1F)Nc1cccc2ccccc12	10.4 (≈ 35.3 µM)
CC(=O)C1=C(O)C(=O)N(CCO)C1c1ccccc1 (stereo unspecified)	> 39.2
O=C1NC(=O)/C(=C\c2ccc(O)cc2O)S1	> 35.6
CCOC(=O)c1sc(=NC(=O)c2ccc(F)cc2)n(C)c1C	1.4 (≈ 4.34 µM)
Cc1cc(C)n(CC(=O)NC2CCCCC2C)c(=O)c1C#N (stereo unspecified)	16.7 (≈ 55.4 µM)

SMILES	solubility kinetic [µg/mL]
O=C(Nc1ccccc1)/C(=C/c1ccccc1)NC(=O)c1ccco1	1.2 (≈ 3.61 µM)
CCOC(=O)CCNC(=O)CCNC(=O)C(c1ccccc1)c1ccccc1	> 57.4
Cc1nc([N+](=O)[O-])c(SCC(N)=O)n1Cc1ccccc1	> 46
CC1(C)CC(=O)N(c2ccc(C#N)cc2)C(=O)C1	> 36.3
CN(C1(C)CCS(=O)(=O)C1)S(=O)(=O)c1cccc([N+](=O)[O-])c1 (stereo unspecified)	> 52.3
COC(=O)c1cc(C(=O)OCC(=O)N2CCCCC2)cc([N+](=O)[O-])c1	> 52.5
NC(=O)NC(c1ccc(Cl)cc1)c1ccccc1Cl (stereo unspecified)	> 44.3
O=C(COC(=O)CNC(=O)c1ccc(Cl)cc1Cl)NC1CC1	> 51.8
O=C(CNCc1cccc2ccccc12)Nc1ccccc1[N+](=O)[O-]	5.4 (≈ 16.1 µM)
Clc1ccc(-c2cc(CN3CCOCC3)no2)cc1	> 41.8
O=C(CN1C(=O)C2CC=CCC2C1=O)N1CCN(S(=O)(=O)c2ccccc2)CC1 (stereo unspecified)	> 62.6
CC1(C)Cc2c(C#N)c(N)n(-c3ccccc3)c(=S)c2CO1	> 46.7
O=[N+]([O-])c1cccc(S(=O)(=O)N2CN(c3ccc(Br)cc3)c3nc4ccccc4nc32)c1	1.6 (≈ 3.12 µM)
CCNC(=S)Nc1ccc2ncoc2c1	> 33.2
CCOc1ccc(N2C(=O)C3CCCN3C2=S)cc1 (stereo unspecified)	> 41.5
Cc1cccc(C)c1NC(=S)N(CCc1ccncc1)C(C)C	45.6 (≈ 139 µM)
CC(C(=O)NC1CCCCC1)N1C(=O)C2C3C=CC(C3)C2C1=O (stereo unspecified)	> 47.5
COC(=O)[C@@H](NC(=O)NCCC1=CCCCC1)C(C)C	> 42.4

Results, then the compound that gave them:

solubility kinetic [µg/mL]	SMILES
> 47.6	O=C(O)c1cc(-c2ccc3ccccc3c2)nc2ccc(F)cc12
3.8 (≈ 10.1 µM)	Cn1c(SCC(=O)Nc2sccc2C(N)=O)nc2ccccc2c1=O
39.1 (≈ 134 µM)	COc1ccccc1C(=O)Nc1cccc2nc(C)ccc12
20 (≈ 82.5 µM)	Cc1nc(Oc2ccccc2)c2ccsc2n1
9.2 (≈ 34.9 µM)	O=C(c1ccccc1)N1CCn2c1nc1ccccc12
0.3 (≈ 0.932 µM)	O=c1[nH]cnc2c1c(-c1ccccc1)cn2-c1cccc(Cl)c1
> 38.4	O=c1cc(Cl)c2ccccc2n1-c1ccccc1
46 (≈ 108 µM)	CC(C)[C@H](NC(=O)c1ccccc1)C(=O)OCC(=O)Nc1ncc(Cl)cc1Cl
5.4 (≈ 16.2 µM)	COc1ccc(OC)c(/C=C2\SC(N3CCCCC3)=NC2=O)c1
7.5 (≈ 24.1 µM)	COC(=O)/C(C#N)=C/c1c(-c2ccccc2)nc2n1CCS2
15.2 (≈ 75.9 µM)	N/C(Cc1cccc2ccccc12)=N\O
> 46.6	CCCn1c(COc2ccc(C(=O)O)cc2)nc2ccccc21
4.5 (≈ 12.8 µM)	CCOc1ccc(N2CC(C(=O)N3CCc4ccccc43)CC2=O)cc1 (stereo unspecified)
19.5 (≈ 64.7 µM)	COc1cccc(CNC(=O)c2csc3c2CCCC3)c1
1.4 (≈ 6.27 µM)	COc1ccc(-c2cc3ccccc3[nH]2)cc1
24.8 (≈ 110 µM)	COc1ccc2nc(-c3ccccn3)[nH]c2c1
> 41	COC1=C(N2CCOCC2)C(=O)c2ccccc2C1=O
1.1 (≈ 2.92 µM)	CCOc1ccc(CSCCNC(=S)Nc2ccc(OC)cc2)cc1
11.3 (≈ 39.6 µM)	Oc1ccc(-c2csc(Nc3ccccn3)n2)cc1O
33.6 (≈ 131 µM)	O=C(NC1CCCC1)c1cc(=O)[nH]c2ccccc12
> 41.3	O=C(COC(=O)c1ccccc1O)NCc1ccco1
9.3 (≈ 38.1 µM)	O=C(NCc1ccc(F)cc1)Nc1ccccc1
> 54.8	Cc1[nH]c2ccccc2c1C(=O)C(=O)N1CCN(C(=O)c2ccco2)CC1
< 0.6	COC(=O)c1sccc1NC(=O)c1cccc(F)c1
